Source: US20120034312A1, “4-ISOPROPYL-3-METHYLPHENOL FOR THE TREATMENT OF INFLAMMATION” (Glaxo Group Limited, priority 2009, published 2012)

What was measured:
[1] = system: LPS stimulated Raw 264.7 Macrophage cells
Method: Anti-inflammatory activity was assessed on classical inflammation model LPS stimulated Raw 264.7 Macrophage cells. Inflammation response was quantified by measurements of the release of Prostaglandin E2 (PGE2) from the cells. Cells were exposed to E.coli lipopolysaccharide (LPS) with or without IPMP for 24 hours prior to assay. […] All values were normalized to cell viability of same sample, then to the inflammatory response of the cells without the addition of agents or LPS (100%).

[2] = system: Human Gingival Fibroblasts; assay: PGE2 release from LPS exposed Human Gingival Fibroblasts; assay type: cell-based; conditions: for PGE2 Response (with LPS): media only without LPS = 100
Method: To further evaluate anti-inflammatory activity of IPMP in the oral cavity, a similar experiment was conducted on Human Gingival Fibroblasts. Cells were exposed to LPS as well as three non-irritating doses of IPMP (see example 1).
Another further experiment with IPMP and zinc chloride was conducted on Human Gingival Fibroblasts.

SMILES	Cell death / cell proliferation at nonirritative dose [1]	Irritation of cells by IPMP by itself [1]	PGE2 Response (without LPS) ([1]; 50 μM IPMP, 24 hours, no LPS, normalized to cell viability and to cells without agents or LPS (100%))	PGE2 Response (with LPS) ([1]; 50 μM IPMP, E.coli LPS, 24 hours, normalized to cell viability and to cells without agents or LPS (100%))	PGE2 Response (with LPS) ([2]; 2 μM IPMP)	PGE2 Response (with LPS) ([2]; 10 μM IPMP)	PGE2 Response (with LPS) ([2]; 50 μM IPMP)	Suppression of LPS induced inflammation ([2]; 2, 10, 50 μM IPMP, with LPS)	PGE2 Response (with LPS) ([2]; 55 μM Zinc Chloride)
Cc1cc(O)ccc1C(C)C [IPMP, 4-isopropyl-3-methylphenol]	neither cause cell death nor affect cell proliferation	did not irritate the cells	101 ± 0.0%	141 ± 6.4%	146 ± 46.6%	127 ± 21.6%	103 ± 13.3%	suppresses LPS induced inflammation in a dose-dependent manner	
[Cl-].[Cl-].[Zn+2] [Zinc Chloride, zinc chloride, reference compound]									171 ± 2.9%
